{
  "source": "patent US20230103444A1",
  "about": "(The Regents of the University of Colorado, a Body Corporate, priority 2020, published 2023)",
  "key": {"DLD1CHD1L-EV cells": {"system": "DLD1CHD1L-EV cells", "experiment": "DNA damage by γ-H2AX immunofluorescence", "assay_type": "cell-based, human", "conditions": "low CHD1L expressing cells", "experimental": "(§1) DLD1^CHD1L-OE cells were seeded into a 96-well PerkinElmer Cell Carrier plate and allowed to adhere overnight. Cells were then treated with the appropriate compound at 10 μM (0.5% DMSO) or with CHD1L inhibitor in combination SN-38 (1 μM), oxaliplatin (10 μM), and etoposide (10 μM). Cells were treated for 6 h. Media was aspirated and cells were washed with cold PBS. Cells were then fixed with 3% paraformaldehyde for 15 min at room temperature, fixed cells were washed with PBS three times. Cells were blocked for 1 hour at room temperature in 5% BSA, 0.3% Triton X-100 in PBS. Cells were then immunostained with phospho-(S139)-g-H2AX rabbit mAb using a 1:800 dilution in 1% BSA, 0.3% Triton X-100 in PBS at 4° C. overnight. Primary antibody was aspirated and cells were washed with PBS. Cells were incubated for 2 h at room temperature with goat anti-rabbit Alexa Fluor Plus™ 647 fluorescent secondary antibody at a concentration of 5 μg/mL in 1% BSA, 0.3% Triton X-100 in PBS. Cells were then washed with PBS, Hoechst 33342 stain was diluted to a concentration of 1:1000 in PBS, and added to cells for 15 min at room temperature. Cells were then imaged using a 20× water objective on the Opera Phenix™ HCS imaging system (PerkinElmer). Synergy was determined using the coefficient of drug interaction (CDI) equation, CDI=(A+B)/(AB). Synergy was defined in these experiments with a CDI<0.8. Additivity was 0.8-1.2 and antagonism was defined by a CDI>1.2.\n(§2) γ-H2AX DNA damage combination studies with irinotecan (SN38). CHD1L inhibitor 6 alone and in combination with SN38 was assessed for DNA damage as previously reported [Abbott et al., 2020; Abraham et al., 2019]. Using DLD1 colorectal cancer cells that have low CHD1L endogenous expression and DLD1 cells engineered to overexpress CHD1L, DNA damage studies were conducted measuring the immunofluorescence of γ-H2AX, a well-established biomarker of DNA damage [Ji et al., 2017; Ivashkevich et al., 2012]. […] Media was aspirated and cells were washed with cold PBS. Cells were then fixed with 3% paraformaldehyde for 15 min at room temperature and washed with PBS three times. Cells were blocked for 1 hour at room temperature in 5% BSA, 0.3% Triton X-100 in PBS. Cells were then immunostained with phospho-(S139)-γ-H2AX rabbit mAb using a 1:800 dilution in 1% BSA, 0.3% Triton X-100 in PBS at 4° C. overnight. Primary antibody was aspirated, and cells were washed with PBS. Cells were incubated for 2 hours at room temperature with goat anti-rabbit Alexa Fluor Plus™ 647 fluorescent secondary antibody at a concentration of 5 μg/mL in 1% BSA, 0.3% Triton X-100 in PBS. Cells were then washed with PBS; Hoechst 33342 stain was diluted to a concentration of 1:1000 in PBS and added to cells for 15 min at room temperature. Cells were then imaged using a 20× water objective on the PerkinElmer Phenix HCS imaging system. […] CDI=(A+B)/(AB), synergy was determined with a CDI<0.8, additivity was 0.8-1.2, and antagonism was defined by a CDI>1.2. Welch's t-test statistical analysis was used to determine significance, where **=P≤0.01."}, "DLD1CHD1L-OE cells": {"system": "DLD1CHD1L-OE cells", "experiment": "DNA damage by γ-H2AX immunofluorescence", "assay_type": "cell-based, human", "conditions": "6 h; for DNA damage (γ-H2AX), combination with SN-38: compound 10 μM + SN-38 1 μM, vs SN-38 alone", "experimental": "as §1, §2"}, "[1]": {"experiment": "Accumulation in SW620 xenograft tumors and liver", "assay_type": "in vivo, athymic nude mice", "conditions": "50 mg/kg i.p. QD 5 days, n=4", "experimental": "Growth was monitored with caliper measurements 3× per week. […] Treatments were administered i.p. QD over five days. Mice were sacrificed 2 h after the final dose on day five of the treatment."}, "[2]": {"experiment": "Liver toxicity, histological evaluation", "assay_type": "in vivo, athymic nude mice", "parameters": "key to Liver Inflammation score: 0 = none; 1 = minimal; 2 = mild; 3 = moderate; 4 = severe; key to Liver Assessment: N = normal background lesion for mouse strain; A = abnormal", "conditions": "for liver toxicity, in words: 50 mg/kg i.p. QD 5 days", "experimental": "Two million VimPro-GFP SW620 cells suspended in 100 μL of a 1:1 mixture of Matrigel® matrix (Corning Life Sciences, Corning, N.Y.) and RPMI 1640 were injected into the flanks of 9-week old female athymic nude mice (Nude-Foxn1nu (069)) (Envigo, Huntingdon, Cambridgeshire, UK). Growth was monitored with caliper measurements 3× per week. […] Treatments were administered i.p. QD over five days. Mice were sacrificed 2 h after the final dose on day five of the treatment."}},
  "note": "Several values for one entry are separate records, joined by “and”; a condition that tells them apart may be missing. Identical values can stand only once. Entries after “also recorded” stand apart in the source; their conditions may differ.",
  "data": [
    {"smiles": "Cc1cc(Nc2ccc(NC(=O)Cc3cccs3)cc2)nc(N2CCCC2)n1", "note": "[Compound 6, N-(4-((6-methyl-2-(pyrrolidin-1-yl)pyrimidin-4-yl)amino)phenyl)-2-(thiophen-2-yl)acetamide]", "values": [
      {"measurement": "DNA damage (γ-H2AX), combination with SN38", "setting": "DLD1CHD1L-EV cells", "result": "nor does it synergize with SN38"},
      {"measurement": "DNA damage (γ-H2AX), compound alone", "setting": "DLD1CHD1L-EV cells", "result": "does not induce significant DNA damage"},
      {"measurement": "DNA damage (γ-H2AX), combination with etoposide", "setting": "DLD1CHD1L-EV cells; etoposide 10 μM", "result": "significant synergy"},
      {"measurement": "DNA damage (γ-H2AX activity), compound alone", "setting": "DLD1CHD1L-OE cells; 10 μM", "result": "no significant DNA damage"},
      {"measurement": "DNA damage (γ-H2AX), combination with SN-38", "setting": "DLD1CHD1L-OE cells", "result": "synergized"},
      {"measurement": "DNA damage (γ-H2AX), combination with SN-38", "setting": "DLD1CHD1L-OE cells; listed as 6.0", "result": "synergy"},
      {"measurement": "DNA damage (γ-H2AX), combination with etoposide", "setting": "DLD1CHD1L-OE cells; compound 10 μM + etoposide 10 μM, vs etoposide alone", "result": "synergized"},
      {"measurement": "DNA damage (γ-H2AX), combination with oxaliplatin", "setting": "DLD1CHD1L-OE cells; compound 10 μM + oxaliplatin 10 μM", "result": "no synergy"},
      {"measurement": "concentration accumulated in SW620 tumors", "setting": "[1]", "result": "10,533±5,579 ng/mL"},
      {"measurement": "Liver Assessment", "setting": "[2]; 50 mg/kg QD 5 days, one line per animal, listed as Compound 6.0", "result": "N (2×) and A (2×)"},
      {"measurement": "Liver Inflammation score", "setting": "[2]; 50 mg/kg QD 5 days, one line per animal, scored if abnormal", "result": 1},
      {"measurement": "liver toxicity, in words", "setting": "[2]", "result": "no evidence of hepatocyte degeneration, necrosis, hyperplasia, or parenchymal inflammation"},
      {"measurement": "liver toxicity, in words", "setting": "[2]; listed as 6.0", "result": "no apparent liver toxicity; also recorded: does not display any liver toxicity"}
    ]}
  ]
}
